What was measured:
HCV NS3-NS4A protease = target: T1, HCV NS3-NS4A protease (Hepatitis C virus genotype 1a, UniProt P27958); assay: HCV Ki Assay (enzyme, Example 5); type: biochemical; conditions: Ki values, tested according to Example 5 (enzyme); 5AB substrate, tNS3 with KK4A
T1 construct: The buffer, KK4A, DTT, and tNS3 were combined
Procedure: HPLC Microbore Method for Separation of 5AB Substrate and Products
NH2-Glu-Asp-Val-Val-(alpha)Abu-Cys-Ser-Met-Ser-Tyr-COOH
A stock solution of 20 mM 5AB (or concentration of your choice) was made in DMSO w/0.2M DTT. This was stored in aliquots at −20 C.
Buffer: 50 mM HEPES, pH 7.8; 20% glycerol; 100 mM NaCl
Total assay volume was 100 μL
The buffer, KK4A, DTT, and tNS3 were combined; distributed 78 μL each into wells of 96 well plate. This was incubated at 30 C for ˜5-10 min.
2.5 μL of appropriate concentration of test compound was dissolved in DMSO (DMSO only for control) and added to each well. This was incubated at room temperature for 15 min.
Initiated reaction by addition of 20 μL of 250 μM 5AB substrate (25 μM concentration is equivalent or slightly lower than the Km for 5AB).
Incubated for 20 min at 30 C.
Terminated reaction by addition of 25 μL of 10% TFA
Transferred 120 μL aliquots to HPLC vials
Separated SMSY product from substrate and KK4A by the following method:
Microbore Separation Method:
Instrumentation: Agilent 1100
Column thermostated chamber G1316A
Diode array detector G1315A
Solvent A=HPLC grade water+0.1% TFA
Solvent B=HPLC grade acetonitrile+0.1% TFA
Stop time: 17 min Post-run time: 10 min.

[1] = system: Cells containing hepatitis C virus (HCV) replicon; assay: HCV Replicon Cell Assay (Example 4); type: cell-based; conditions: 48 h, tested according to Example 4 (cell), 50% inhibition of HCV RNA level, 48-hour incubation
Procedure: HCV Replicon Cell Assay Protocol
Cells containing hepatitis C virus (HCV) replicon were maintained in DMEM containing 10% fetal bovine serum (FBS), 0.25 mg per ml of G418, with appropriate supplements (media A).
On day 1, replicon cell monolayer was treated with a trypsin:EDTA mixture, removed, and then media A was diluted into a final concentration of 100,000 cells per ml wit. 10,000 cells in 100 ul were plated into each well of a 96-well tissue culture plate, and cultured overnight in a tissue culture incubator at 37° C.
On day 2, compounds (in 100% DMSO) were serially diluted into DMEM containing 2% FBS, 0.5% DMSO, with appropriate supplements (media B). The final concentration of DMSO was maintained at 0.5% throughout the dilution series.
Media on the replicon cell monolayer was removed, and then media B containing various concentrations of compounds was added. Media B without any compound was added to other wells as no compound controls.
Cells were incubated with compound or 0.5% DMSO in media B for 48 hours in a tissue culture incubator at 37° C. At the end of the 48-hour incubation, the media was removed, and the replicon cell monolayer was washed once with PBS and stored at −80° C. prior to RNA extraction.
Culture plates with treated replicon cell monolayers were thawed, and a fixed amount of another RNA virus, such as Bovine Viral Diarrhea Virus (BVDV) was added to cells in each well, RNA extraction reagents (such as reagents from RNeasy kits) were added to the cells immediately to avoid degradation of RNA. Total RNA was extracted according the instruction of manufacturer with modification to improve extraction efficiency and consistency. Finally, total cellular RNA, including HCV replicon RNA, was eluted and stored at −80° C. until further processing.
A Taqman real-time RT-PCR quantification assay was set up with two sets of specific primers and probe. One was for HCV and the other was for BVDV. Total RNA extractants from treated HCV replicon cells was added to the PCR reactions for quantification of both HCV and BVDV RNA in the same PCR well. Experimental failure was flagged and rejected based on the level of BVDV RNA in each well. The level of HCV RNA in each well was calculated according to a standard curve run in the same PCR plate. The percentage of inhibition or decrease of HCV RNA level due to compound treatment was calculated using the DMSO or no compound control as 0% of inhibition. The IC50 (concentration at which 50% inhibition of HCV RNA level is observed) was calculated from the titration curve of any given compound.

T1 sequence (P27958 1658-1711): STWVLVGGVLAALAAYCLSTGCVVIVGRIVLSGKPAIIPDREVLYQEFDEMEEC
T1 sequence (P27958 1027-1208): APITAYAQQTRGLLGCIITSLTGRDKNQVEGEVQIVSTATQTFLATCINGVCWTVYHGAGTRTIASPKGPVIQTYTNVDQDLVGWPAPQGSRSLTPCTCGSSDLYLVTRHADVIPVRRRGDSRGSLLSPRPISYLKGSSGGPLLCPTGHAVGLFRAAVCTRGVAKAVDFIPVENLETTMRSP

SMILES | Ki (HCV NS3-NS4A protease) | IC50 [1]
CCC[C@H](NC(=O)[C@@H]1C[C@@H](Oc2ccc(C(F)(F)F)cc2)CN1C(=O)[C@@H](NC(=O)[C@@H](NC(=O)c1cnccn1)C1CCCCC1)C(C)(C)C)C(=O)C(=O)NC1CC1 [Compound 13] | 100 to 300 nM | < 500 nM
CCC[C@H](NC(=O)[C@@H]1C[C@@H](Oc2cccc(NC(C)=O)c2)CN1C(=O)[C@@H](NC(=O)[C@@H](NC(=O)c1cnccn1)C1CCCCC1)C(C)(C)C)C(=O)C(=O)NC1CC1 [Compound 49] | < 100 nM | > 1000 nM
CCC[C@H](NC(=O)[C@@H]1C[C@@H](Oc2ccnc3ccccc23)CN1C(=O)[C@@H](NC(=O)[C@@H](NC(=O)c1cnccn1)C1CCCCC1)C(C)(C)C)C(=O)C(=O)NC1CC1 [Compound 39] | < 100 nM | < 500 nM
CCC[C@H](NC(=O)[C@@H]1C[C@@H](Oc2ccc(-c3ccccc3)cc2)CN1C(=O)[C@@H](NC(=O)[C@@H](NC(=O)c1cnccn1)C1CCCCC1)C(C)(C)C)C(=O)C(=O)NC1CC1 [Compound 19] | < 100 nM | < 500 nM
CCC[C@H](NC(=O)C1C[C@@H](Oc2cccc(F)c2F)CN1C(=O)[C@@H](NC(=O)[C@@H](NC(=O)c1cnccn1)C1CCCCC1)C(C)(C)C)C(=O)C(=O)NC1CC1 (stereo partly shown) [Compound 7] | 100 to 300 nM | < 500 nM
CCC[C@H](NC(=O)[C@@H]1C[C@@H](Oc2ccccc2)CN1C(=O)[C@@H](NC(=O)[C@@H](NC(=O)c1cnccn1)C1CCCCC1)C(C)(C)C)C(=O)C(=O)NC1CC1 [Compound 35] | < 100 nM | < 500 nM
CCC[C@H](NC(=O)C1C[C@@H](Oc2ccccc2F)CN1C(=O)[C@@H](NC(=O)[C@@H](NC(=O)c1cnccn1)C1CCCCC1)C(C)(C)C)C(=O)C(=O)NC1CC1 (stereo partly shown) [Compound 4] | 100 to 300 nM | 500 to 1000 nM
CCCC(NC(=O)[C@@H]1C[C@@H](Oc2ccccc2)CN1C(=O)[C@@H](NC(=O)[C@@H](NC(=O)c1cnccn1)C1CCCCC1)C(C)(C)C)C(=O)C(=O)NC1CC1 (stereo partly shown) [Compound 34] | 100 to 300 nM | < 500 nM
CCC[C@H](NC(=O)[C@@H]1C[C@@H](Oc2ccc(OC(F)(F)F)cc2)CN1C(=O)[C@@H](NC(=O)[C@@H](NC(=O)c1cnccn1)C1CCCCC1)C(C)(C)C)C(=O)C(=O)NC1CC1 [Compound 14] | 100 to 300 nM | < 500 nM
CCC[C@H](NC(=O)[C@@H]1C[C@@H](Oc2ccccc2Cl)CN1C(=O)[C@@H](NC(=O)[C@@H](NC(=O)c1cnccn1)C1CCCCC1)C(C)(C)C)C(=O)C(=O)NC1CC1 [Compound 20] | < 100 nM | 500 to 1000 nM
CCC[C@H](NC(=O)[C@@H]1C[C@@H](Oc2ccc(OC)cc2Cl)CN1C(=O)[C@@H](NC(=O)[C@@H](NC(=O)c1cnccn1)C1CCCCC1)C(C)(C)C)C(=O)C(=O)NC1CC1 [Compound 64] | < 100 nM | < 500 nM
CCC[C@H](NC(=O)[C@@H]1C[C@@H](Oc2ccc(S(=O)(=O)NC)cc2)CN1C(=O)[C@@H](NC(=O)[C@@H](NC(=O)c1cnccn1)C1CCCCC1)C(C)(C)C)C(=O)C(=O)NC1CC1 [Compound 48] | 100 to 300 nM | < 500 nM
CCC[C@H](NC(=O)C1C[C@@H](Oc2ccc(Cl)cc2Cl)CN1C(=O)[C@@H](NC(=O)[C@@H](NC(=O)c1cnccn1)C1CCCCC1)C(C)(C)C)C(=O)C(=O)NC1CC1 (stereo partly shown) [Compound 2] | 100 to 300 nM | 500 to 1000 nM
CCC[C@H](NC(=O)[C@@H]1C[C@@H](Oc2ccc(F)c(F)c2)CN1C(=O)[C@@H](NC(=O)[C@@H](NC(=O)c1cnccn1)C1CCCCC1)C(C)(C)C)C(=O)C(=O)NC1CC1 [Compound 54] | < 100 nM | < 500 nM

Reference: patent US8217048B2, “Inhibitors of serine proteases, particularly HCV NS3-NS4A protease” (Vertex Pharmaceuticals Incorporated, priority 2003, dated 2012)
